Assay results from US20090099376A1, “TIGECYCLINE AND METHODS OF PREPARING INTERMEDIATES” (Wyeth, priority 2007, published 2009).
≈ marks a conversion by molar mass, not a printed value.

Experiments:
[1] = tested on: methicillin-resistant Staphylococcus aureus; settings: cited from earlier work
[2] = tested on: penicillin-resistant Streptococcus pneumoniae; settings: cited from earlier work
[3] = tested on: vancomycin-resistant enterococci; settings: cited from earlier work
[4] = tested on: organisms carrying either of the two major forms of tetracycline resistance: efflux and ribosomal protection; settings: organisms with tetracycline resistance by efflux or ribosomal protection; cited from earlier work
[5] = Solubility at RT in hydrogenation solvent mixtures doped with IPA; assay type: physicochemical
From the text: An investigation by examining the solubility characteristics of 9-nitrominocycline and 9-aminominocycline sulfate in the presence of various amounts of IPA to gauge whether the starting material and/or product could in fact precipitate out in the reaction solvent was initiated.

[6] = Dynamic vapor sorption (DVS) study; assay type: physicochemical; settings: RH 90%
From the text: As a comparison, we ran the DVS on 9-nitrominocycline. This intermediate picks up to 40% by weight of water at RH 90%.

[7] = 80:20 water:methanol with 20% wt/wt IPA, aqueous with cosolvent or surfactant or cyclodextrin, Exp. 8: +20% wt/wt IPA, 80:20 water:methanol
[8] = 80:20 water:methanol with 35% wt/wt IPA, aqueous with cosolvent or surfactant or cyclodextrin, Exp. 9: +35% wt/wt IPA, 80:20 water:methanol
[9] = 80:20 water:methanol with 50% wt/wt IPA, aqueous with cosolvent or surfactant or cyclodextrin, Exp. 10: +50% wt/wt IPA, 80:20 water:methanol
[10] = v:v) with 0% wt/wt IPA, organic solvent or mixture, Exp. 1: MeOH:water (99:1, v:v) +0% wt/wt IPA
[11] = v:v) with 4% wt/wt IPA, organic solvent or mixture, Exp. 2: MeOH:water (99:1, v:v) +4% wt/wt IPA
[12] = v:v) with 20% wt/wt IPA, organic solvent or mixture, Exp. 3: MeOH:water (99:1, v:v) +20% wt/wt IPA
[13] = v:v) with 35% wt/wt IPA, organic solvent or mixture, Exp. 4: MeOH:water (99:1, v:v) +35% wt/wt IPA
[14] = v:v) with 50% wt/wt IPA, organic solvent or mixture, Exp. 5: MeOH:water (99:1, v:v) +50% wt/wt IPA

SMILES | Antibacterial activity [1] | Antibacterial activity [2] | Antibacterial activity [3] | Antibacterial activity [4] | Solubility (in words) ([5]; 80:20 water:methanol) | solubility ([5]; 80:20 water:methanol with 0% wt/wt IPA, aqueous with cosolvent or surfactant or cyclodextrin, Exp. 6: +0% wt/wt IPA, 80:20 water:methanol) | solubility ([5]; 80:20 water:methanol with 4% wt/wt IPA, aqueous with cosolvent or surfactant or cyclodextrin, Exp. 7: +4% wt/wt IPA, 80:20 water:methanol) | solubility [5, 7] | solubility [5, 8] | solubility [5, 9] | solubility [5, 10] | solubility [5, 11] | solubility [5, 12] | solubility [5, 13] | solubility [5, 14] | Water uptake in DVS [6] | Solubility (in words) ([5]; 99:1 methanol:water) | Solubility at RT ([5]; Exp. 6: +0% wt/wt IPA, 80:20 water:methanol) | Solubility at RT ([5]; Exp. 7: +4% wt/wt IPA, 80:20 water:methanol) | solubility ([5]; organic solvent or mixture, Exp. 11: IPA Only)
CN(C)c1cc(NC(=O)CNC(C)(C)C)c(O)c2c1C[C@H]1C[C@H]3[C@H](N(C)C)C(O)=C(C(N)=O)C(=O)[C@@]3(O)C(O)=C1C2=O [Tigecycline, (4S,4aS,5aR,12aS)-9-[2-(tert-butylamino)acetamido]-4,7-bis(dimethylamino)-1,4,4a,5,5a,6,11,12a-octahydro-3,10,12,12a-tetrahydroxy-1,11-dioxo-2-naphthacenecarboxamide] | active | active | active | active | – | – | – | – | – | – | – | – | – | – | – | – | – | – | – | –
CN(C)c1cc([N+](=O)[O-])c(O)c2c1C[C@H]1C[C@H]3[C@H](N(C)C)C(O)=C(C(N)=O)C(=O)[C@@]3(O)C(O)=C1C2=O [9-nitrominocycline] | – | – | – | – | fairly high | > 421 mg/mL | > 426 mg/mL | > 453 mg/mL | > 303 mg/mL | 333 mg/mL (≈ 663 mM) | > 466 mg/mL | 129 mg/mL (≈ 257 mM) | 68 mg/mL (≈ 135 mM) | 30 mg/mL (≈ 59.7 mM) | 23 mg/mL (≈ 45.8 mM) | up to 40 % by weight | – | – | – | –
CN(C)c1cc(N)c(O)c2c1C[C@H]1C[C@H]3[C@H](N(C)C)C(O)=C(C(N)=O)C(=O)[C@@]3(O)C(O)=C1C2=O [9-aminominocycline] | – | – | – | – | high | – | – | 243 mg/mL (≈ 514 mM) | 103 mg/mL (≈ 218 mM) | 58 mg/mL (≈ 123 mM) | 14 mg/mL (≈ 29.6 mM) | 16 mg/mL (≈ 33.9 mM) | 12 mg/mL (≈ 25.4 mM) | 9 mg/mL (≈ 19 mM) | 7 mg/mL (≈ 14.8 mM) | – | somewhat low | high | high | 1 mg/mL (≈ 2.12 mM)
